According to patent US20230085945A1, “ORTHOGONAL SAFETY SWITCHES TO ELIMINATE GENETICALLY ENGINEERED CELLS” (The Board of Trustees of the Leland Stanford Junior …, priority 2020, published 2023):

Key:
[1] = system: NANOG mRNA and differentiation marker genes in NANOG^iCasp9-YFP hPSCs and differentiated cell-types; experiment: qPCR of NANOG and marker gene expression after AP20187; assay type: cell-based, human; conditions: for expression of differentiation markers in differentiated cell-types: AP20187 1 nM, 24 hours
Procedure: FIG. 9: Efficacy of the NANOG^iCasp9-YFP safety switch (related to FIG. 3). A) Undifferentiated NANOG^iCasp9-YFP hPSCs were treated with AP20187 at the indicated concentrations for 24 hours, and then the percentage of viable remaining cells was subsequently analyzed using FACS analysis (left) and alamar blue staining (right). For the FACS analysis, the percentage of cells shown represents viable cells (i.e., DAPI-negative cells obtained after DAPI staining) that were then gated for YFP+ (i.e., NANOG^+) cells. For the alamar blue analysis, wild-type hPSCs were used as a negative control. […] AP20187 doses equal to or greater than 100 nM may prevent efficient killing of NANOG^iCasp9-YFP hPSCs by considerably downregulating NANOG. Gene expression is depicted normalized to the reference gene YWHAZ (i.e., YWHAZ=1.0). C) Undifferentiated NANOG^iCasp9-YFP hPSCs were treated with the indicated doses of AP20187 for various lengths of time (6, 12, 24, 48, 72 hours) and then alamar blue assay was performed immediately thereafter to quantify the extent of cell death. […] D) Immunofluorescent imaging of NANOG^iCasp9-YFP hESCs in the undifferentiated state and after differentiation into day 6 sclerotome as marked by TWIST1 expression, both without and with treatment of cells with 1 nM AP20187 for 24 hours. […] The following marker genes were assessed in each respective cell-type: sclerotome (bone) progenitors (TWIST1, SOX9, PAX1, PAX9), liver progenitors (SOX17, HNF4A, AFP, TBX3), and forebrain (neural) progenitors (PAX6, FOXG1, OTX2, SIX3). F) Further validation of NANOG^iCasp9-YFP using a simulated mixed cell culture assay. NANOG^iCasp9-YFP undifferentiated hPSCs and hPSC-derived derived sclerotome cells were mixed at a 3:7 ratio, respectively. Mixed cells were treated with AP20187, and 24 hours post-treatment, FACS analysis was done to assess remaining NANOG^iCasp9-YFP hPSCs in culture.
RNA extraction, reverse transcription and quantitative PCR. Undifferentiated or differentiated hPSCs were lysed in […] of RLT Plus Buffer and RNA was extracted using the RNeasy Plus Mini Kit (Qiagen) according to the manufacturer's protocol. 300 ng of total RNA was reverse transcribed into cDNA for qPCR using the High-Capacity cDNA Reverse Transcription Kit (Applied Biosystems) according to the manufacturer's protocol. qPCR was performed in 384-well format as previously described (Loh et al., 2016) on a QuantStudio 5 qPCR machine (Thermo Fisher). Expression of all genes was first normalized to the levels of the reference gene YWHAZ, and then plotted relative to the levels of YWHAZ (i.e., 1.0=equivalent to YWHAZ). The following forward and reverse primer sequences were used to detect the expression of the respective genes: […]

[2] = system: NANOG^iCasp9-YFP hPSCs transplanted subcutaneously (teratomas); experiment: In vivo teratoma formation after AP20 pre-treatment of hPSCs (bioluminescent imaging); set-up: species or system NOD-SCID Il2rg^−/− mice; conditions: 5×10^5 hPSCs pre-treated with 1 nM AP20 for 24 hours, subcutaneous transplantation
Procedure: FIG. 3: Implementation of the NANOG^iCasp9-YFP safety switch. A) Schema depicting how drug AP20187 induces dimerization of Caspase9 in undifferentiated NANOG^iCasp9-YFP hESCs, subsequently triggering cell death (top left). NANOG^iCasp9-YFP hESCs were treated for 24 hours with increasing concentrations of AP20187. AP20187 was withdrawn, and cultures were further grown in mTeSR1 to allow any surviving hESCs to grow; any surviving colonies were counted 1 week later (top right). Alkaline phosphatase staining of whole wells of a 12-well plate after 24-hour treatment with AP20187 (bottom). […] Bioluminescent imaging of mice occurred weekly for 5 weeks with no transplant control (NTC) animals included for relative luminescence normalization. Total flux (photons/sec) was measured for each animal and averaged. […] The percentage of surviving cells was calculated relative to untreated controls. […]
Given that very small numbers of hPSCs (10,000) are sufficient to form teratomas in vivo, we tested the lower bounds of this system to test whether any rare hPSCs survived drug treatment and whether they could form teratomas. […] We used bioluminescent imaging (using the AkaLuciferase system) to determine if micro-teratomas might form, rather than visual inspection of subcutaneous nodules, because bioluminescent imaging is more sensitive and quantitative. […]

## CC[C@H](C(=O)N1CCCC[C@H]1C(=O)O[C@H](CCc1ccc(OC)c(OC)c1)c1cccc(OCC(=O)NCC(CNC(=O)COc2cccc([C@@H](CCc3ccc(OC)c(OC)c3)OC(=O)[C@@H]3CCCCN3C(=O)[C@@H](CC)c3cc(OC)c(OC)c(OC)c3)c2)CN(C)C)c1)c1cc(OC)c(OC)c(OC)c1 [AP20]
[1]
  expression of differentiation markers in differentiated cell-types: not substantially effected
[1]; listed as AP20187
  expression of differentiation markers in differentiated cell-types: did not substantially impact marker gene expression
[1]; NANOG^iCasp9-YFP hPSCs
  doses that may prevent efficient killing by considerably downregulating NANOG: ≥ 100 nM
[1]; increasing doses of AP20187
  NANOG mRNA expression in undifferentiated hPSCs: downregulated NANOG mRNA expression
[2]
  mice that formed teratomas: 0/14
